# From patent US5521208A, “Compositions and methods for the treatment of the metabolically impaired and for improved compliance” (Alcon Laboratories, Inc., priority 1993, dated 1996)
# Read-outs that look alike come from different tables or passages of the source.
# Legend:
# [1] = biological target: T1, Rat Aldose Reductase (AR) (Rattus norvegicus, UniProt P07943); test: In vitro inhibition of aldose reductase (rat lens supernatant fraction); type: biochemical; conditions: for IC50: ± SEM, n = 3-4, rat lens supernatant, pH 7.5, room temperature; for difference in activity in vitro between A(+) and A(-): Rat AR and Rat L-HDH, conclusion in words
# T1 construct: rat lens supernatant fraction; from tissue; host or cells: rat lens, supernatant fraction
# Excerpt: (§1) The in vitro inhibiting activity of racemic 2,7-difluoro-4-methoxyspiro[9H-fluorene-9,4'-imidazolidine]-2',5'-dione, prepared in accordance with U.S. Pat. No. 4,864,028 (hereafter referred to as "A(±)") was compared to that of the R(+) and S(-) enantiomers thereof, prepared in accordance with U.S. Pat. No. 5,151,544 (referred to hereafter as "A(+)" and "A(-)", respectively), with respect to aldose reductase and L-hexonate dehydrogenase.
# (§2) The test methods used for measuring in vitro inhibition activities of these compounds toward aldose reductase and L-hexonate dehydrogenase are known. The method utilized for measuring the inhibition of aldose reductase is described in B. W. Griffin and L. G. McNatt, "Characterization of the Reduction of 3-Acetylpyridine Adenine Dinucleotide Phosphate by Benzyl Alcohol Catalyzed by Aldose Reductase", Arch. Biochem, Biophys. 246:75-81 (1986). The method utilized for measuring the inhibition of L-hexonate dehydrogenase is described in M. T. DuPriest, B. W. Griffin, D. Kuzmich, and L. G. McNatt "Spiro[fluoreneisothiazolidin]one Dioxides: New Aldose Reductase and L-Hexonate Dehydrogenase Inhibitors", J. Med Chem. 34:3229-3234 (1991). Both methods are based on detection of the rate of increase of fluorescence of NADPH (reduced form of nicotinamide adenine dinucleotide phosphate) or an analog, formed as a product of the enzymatic reaction, i.e., oxidation of an appropriate alcohol substrate by the respective oxidized pyridine species. In the assay for aldose reductase, the reaction mixture contained 50 mmol/L potassium phosphate buffer (pH 7.5), 12 mmol/L benzyl alcohol, 12 μmol/L oxidized 3-acetylpyridine adenine dinucleotide phosphate, and rat lens supernatant fraction (50-100 μg total protein) in a total volume of 1.0 mL. The assay for L-hexonate dehydrogenase consisted of the following components: 50 mmol/L potassium phosphate buffer (pH 7.5), 20 mmol/L L-gulonate, 25 μmol/L NADP+, and rat kidney supernatant fraction (50-100 µg total protein) in a total volume of 1.0 mL. The enzyme-dependent rate of formation of the reduced pyridine nucleotide was monitored with a fluorescence spectrophotometer set at excitation/emission wavelengths of 365/480 nm for the NADP+analog and 365/465 nm for NADP+; slit widths were routinely set at 10 nm. Reactions were carried out at room temperature; blank rates with one component of the reaction omitted were typically less than 10% of the rate of the complete reaction.
# The IC50 values (inhibitor concentration producing 50% inhibition of the reaction under the standard assay conditions described) were computed by linearregression analysis of the linear portion of the dose-response curve for each inhibitor.
# [2] = biological target: T2, Rat L-Hexonate Dehydrogenase (L-HDH) (Rattus norvegicus, UniProt P51635); test: In vitro inhibition of L-hexonate dehydrogenase (rat kidney supernatant fraction); type: biochemical; conditions: ± SEM, n = 2-3, pH 7.5, room temperature
# T2 construct: rat kidney supernatant fraction; from tissue; host or cells: rat kidney, supernatant fraction
# T2 sequence (P51635 1-325): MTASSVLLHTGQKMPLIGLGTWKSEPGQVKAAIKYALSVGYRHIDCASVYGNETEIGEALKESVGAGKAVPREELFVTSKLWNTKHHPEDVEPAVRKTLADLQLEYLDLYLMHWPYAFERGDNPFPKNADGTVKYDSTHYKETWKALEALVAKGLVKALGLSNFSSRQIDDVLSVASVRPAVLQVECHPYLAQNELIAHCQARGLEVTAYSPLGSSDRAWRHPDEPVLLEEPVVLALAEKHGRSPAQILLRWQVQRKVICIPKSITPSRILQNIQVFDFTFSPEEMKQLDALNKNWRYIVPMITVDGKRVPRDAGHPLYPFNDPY
# Excerpt: as §1
# as §2, with “The assay for L-hexonate dehydrogenase consisted of the following components: 50 mmol/L potassium phosphate buffer (pH 7.5), 20 mmol/L L-gulonate, 25 μmol/L NADP+, and rat kidney supernatant fraction (50-100 µg total protein) in a total volume of 1.0 mL.” left out, “Reactions were carried out at room temperature; blank rates with one component of the reaction omitted were typically less than 10% of the rate of the complete reaction.” left out
# [3] = Plasma pharmacokinetics in rats following a 2 mg/kg intravenous bolus injection; type: in vivo, male Sprague-Dawley rats; conditions: 2 mg/kg i.v. bolus; for AUC(0-inf): linear trapezoidal summation with extrapolation to infinity; for clearance: read-out: CLT (total plasma clearance) (converted); for half-life / k el: 2 mg/kg; for concentration at 1 h / concentration at 4 h / concentration at 8 h / concentration at 24 h / concentration at 31 h / concentration at 48 h / concentration at 72 h / concentration at 96 h / concentration at 120 h / concentration at 144 h / concentration at 168 h / concentration at 216 h: Mean ± SD (N = 3); for concentration at 96 h / concentration at 120 h / concentration at 144 h / concentration at 168 h / concentration at 216 h: ND = Not Detected (lower limit of detection 2 ng/mL)
# Procedure: The pharmacokinetic properties of A(±) of Example 1 were compared with those of each enantiomer, A(+) and A(-) of Example 1. The comparison was made in rats following an intravenous bolus injection.
# The test articles were formulated in a 0.1N sodium carbonate solution to yield a 2 mg/mL solution. A total of 126 male Sprague-Dawley rats weighing 200-300 g were divided into three groups of 42 rats each. The animals were offered food and water ad libitum except fasting overnight prior to and for four hours after dosing. Rats in each group received a single 2 mg/kg intravenous dose of A(+) or A(-) or A(±) via the tail vein. At the following times postdose, three rats from each group were anesthetized by carbon dioxide inhalation and plasma samples were collected from each animal: 0, 1, 4, 8, 24, 31, 48, 72, 96, 120, 144, 168, 216, and 336 hours. Plasma concentrations of each drug were determined by gas chromatographic-electron capture (GC-EC) methods known to those skilled in the art, with a lower limit of detection of 2 ng/mL. See, e.g., Park, Y. H., et al., Xenobiotica 22:543-550 (1992). The values of the elimination rate constants, α,β and γ, were obtained by linear regression analysis of the log-linear portion of the plasma concentration-time curve. These constants correspond to the initial distribution, disposition and terminal elimination phases, respectively. The α and β values were obtained by the method of residuals. The corresponding half-lives (t1/2α, t1/2β and t1/2γ) were calculated by dividing 0.693 by each respective parameter. The area under the plasma concentration versus time curve from 0 to infinity (AUC..infin.) was calculated by linear trapezoidal summation with extrapolation to infinity. Total plasma clearance CLT was calculated as dose divided by AUC..infin.. The area under the first moment curve (AUMC) is the area under the curve observed for the product of time and concentration, versus time. Apparent volume of distribution at steady state (Vss) was calculated by the product of dose and AUMC, divided by (AUC..infin.)^2.
# [4] = test system: sorbitol in three tissues (lens, sciatic nerve and retina); test: In vivo inhibition of sorbitol in three tissues (lens, sciatic nerve and retina) of severely diabetic rats, dosed orally; conditions: for ED50: Rattus norvegicus, 192 h, once a day for eight days
# Procedure: To compare the in vivo efficacy of A(±) (from Example 1) and its enantiomers, A(+) and A(-), the ED50 values (the effective dose, in mg/kg/day, to achieve 50% inhibition) for inhibition of sorbitol in three tissues (lens, sciatic nerve and retina) of severely diabetic rats, dosed orally for eight days, once a day, were recorded.
# [5] = test system: sorbitol in three tissues (lens, sciatic nerve and retina); test: as above; conditions: Rattus norvegicus, 192 h, oral, once a day for eight days, footnote 1: ED60, read-out: ED50, Lens (footnote: for lens, ED60 value is given)
# [6] = rat, plasma, iv, ND = Not Detected, read-out: t1/2γ (terminal elimination phase half-life) (converted)
# [7] = rat, plasma, iv, ND = Not Detected, read-out: γ (elimination rate constant, terminal elimination phase) (converted)
# [8] = rat, plasma, iv, read-out: t1/2α (initial distribution phase half-life) (converted)
# [9] = rat, plasma, iv, read-out: t1/2β (disposition phase half-life) (converted)
# [10] = rat, plasma, iv, read-out: α (elimination rate constant, initial distribution phase) (converted)
# [11] = rat, plasma, iv, read-out: β (elimination rate constant, disposition phase) (converted)
# [12] = retina sorbitol, oral, A(-) value is (est.), read-out: ED50, Retina
# [13] = sciatic nerve sorbitol, oral, read-out: ED50, S. Nerve
SMILES,IC50 [1] [µM],IC50 [2] [µM],AUMC [3] [μg/hour^2/mL],elimination profile (in words) [3],"AUC(0-inf) ([3]; rat, plasma, iv) [ng·h/mL]","clearance ([3]; rat, plasma, iv) [mL/min/kg]","half-life [3, 8] [h]","half-life [3, 9] [h]","k el [3, 10] [s⁻¹]","k el [3, 11] [s⁻¹]","concentration at 1 h ([3]; rat, plasma, iv) [ng/mL]","concentration at 4 h ([3]; rat, plasma, iv) [ng/mL]","concentration at 8 h ([3]; rat, plasma, iv) [ng/mL]","concentration at 24 h ([3]; rat, plasma, iv) [ng/mL]","concentration at 31 h ([3]; rat, plasma, iv) [ng/mL]","concentration at 48 h ([3]; rat, plasma, iv) [ng/mL]","concentration at 72 h ([3]; rat, plasma, iv) [ng/mL]","ED50 [4, 12] [mg/kg]","ED50 [4, 13] [mg/kg]",ED60 [5] [mg/kg/day],further results
"COc1cc(F)cc2c1-c1ccc(F)cc1C21NC(=O)NC1=O (racemic) [A(±), 2,7-difluoro-4-methoxyspiro[9H-fluorene-9,4'-imidazolidine]-2',5'-dione]",5.7 ± 1.7,2.2 ± 0.9,854,kinetic profile similar to that of A(+) with the presence of a persistent elimination phase,60400,0.552,5.8,8,3.28e-05,2.36e-05,5080 ± 441,3590 ± 441,2420 ± 5440,352 ± 34,194 ± 22,108 ± 27,3 ± 4,0.26,0.12,0.28,"Vd ([3]; rat, plasma, iv, read-out: Vss (apparent volume of distribution at steady state)): 0.47 L/kg; half-life [3, 6]: 40.7 h; k el [3, 7]: 4.72e-06 s⁻¹; concentration at 96 h ([3]; rat, plasma, iv): 17 ± 4 ng/mL; concentration at 120 h ([3]; rat, plasma, iv): 13 ± 3 ng/mL; concentration at 144 h ([3]; rat, plasma, iv): 11 ± 2 ng/mL; concentration at 168 h ([3]; rat, plasma, iv): 5 ± 2 ng/mL; concentration at 216 h ([3]; rat, plasma, iv): 2 ± 1 ng/mL; activity relative to A(+) ([4]; sorbitol inhibition in vivo, diabetic rats): about 50%"
"COc1cc(F)cc2c1-c1ccc(F)cc1[C@@]21NC(=O)NC1=O [A(+), 2,7-difluoro-4-methoxyspiro[9H-fluorene-9,4'-imidazolidine]-2',5'-dione]",5.5 ± 0.2,3 ± 0.4,965,"triexponential elimination profile with an initial distribution phase, a disposition phase due to metabolism, and a slow terminal elimination phase",54400,0.612,3.1,14.5,6.17e-05,1.33e-05,2970 ± 679,2360 ± 456,2360 ± 281,486 ± 170,382 ± 49,162 ± 32,67 ± 15,0.15,0.08,0.15,"difference in activity in vitro between A(+) and A(-) [1]: no significant difference in activity in vitro; half-life [3, 6]: 37.4 h; k el [3, 7]: 5e-06 s⁻¹; concentration at 96 h ([3]; rat, plasma, iv): 33 ± 11 ng/mL; concentration at 120 h ([3]; rat, plasma, iv): 11 ± 4 ng/mL; concentration at 144 h ([3]; rat, plasma, iv): 9 ± 1 ng/mL; concentration at 168 h ([3]; rat, plasma, iv): 5 ± 3 ng/mL; concentration at 216 h ([3]; rat, plasma, iv): 2 ± 1 ng/mL"
"COc1cc(F)cc2c1-c1ccc(F)cc1[C@]21NC(=O)NC1=O [A(-), 2,7-difluoro-4-methoxyspiro[9H-fluorene-9,4'-imidazolidine]-2',5'-dione]",5.9 ± 0.3,3 ± 0.4,402,lacks a slow terminal elimination phase,63000,0.528,4.3,8.5,4.53e-05,2.25e-05,7330 ± 220,3800 ± 975,2780 ± 449,140 ± 17,127 ± 36,23 ± 8,4 ± 3,2 to 3,1,1.52,"difference in activity in vitro between A(+) and A(-) [1]: no significant difference in activity in vitro; volume of distribution (in words) ([3]; compared with A(+)): significantly lower volume of distribution; factor by which less active than A(+) ([4]; in all tissues (lens, sciatic nerve, retina)): ≥ 10; maximum inhibition achieved at the highest dose ([4]; lens sorbitol, highest dose (1.5 mg/kg/day), oral, eight days): 40%"
